This is an account of results in patent US10717716B2, “1,3,4-oxadiazole derivative compounds as histone deacetylase 6 inhibitor, and the pharmaceutical composition comprising the same” (Chong Kun Dang Pharmaceutical Corp., priority 2015, dated 2020).

Like-named read-outs stand apart in the source and are kept apart here.

The test has as its target T1, human recombinant HDAC6 (Homo sapiens, UniProt Q9UBN7).
T1 construct: purchased Calbiochem 382180
T1 sequence (Q9UBN7 1-1215): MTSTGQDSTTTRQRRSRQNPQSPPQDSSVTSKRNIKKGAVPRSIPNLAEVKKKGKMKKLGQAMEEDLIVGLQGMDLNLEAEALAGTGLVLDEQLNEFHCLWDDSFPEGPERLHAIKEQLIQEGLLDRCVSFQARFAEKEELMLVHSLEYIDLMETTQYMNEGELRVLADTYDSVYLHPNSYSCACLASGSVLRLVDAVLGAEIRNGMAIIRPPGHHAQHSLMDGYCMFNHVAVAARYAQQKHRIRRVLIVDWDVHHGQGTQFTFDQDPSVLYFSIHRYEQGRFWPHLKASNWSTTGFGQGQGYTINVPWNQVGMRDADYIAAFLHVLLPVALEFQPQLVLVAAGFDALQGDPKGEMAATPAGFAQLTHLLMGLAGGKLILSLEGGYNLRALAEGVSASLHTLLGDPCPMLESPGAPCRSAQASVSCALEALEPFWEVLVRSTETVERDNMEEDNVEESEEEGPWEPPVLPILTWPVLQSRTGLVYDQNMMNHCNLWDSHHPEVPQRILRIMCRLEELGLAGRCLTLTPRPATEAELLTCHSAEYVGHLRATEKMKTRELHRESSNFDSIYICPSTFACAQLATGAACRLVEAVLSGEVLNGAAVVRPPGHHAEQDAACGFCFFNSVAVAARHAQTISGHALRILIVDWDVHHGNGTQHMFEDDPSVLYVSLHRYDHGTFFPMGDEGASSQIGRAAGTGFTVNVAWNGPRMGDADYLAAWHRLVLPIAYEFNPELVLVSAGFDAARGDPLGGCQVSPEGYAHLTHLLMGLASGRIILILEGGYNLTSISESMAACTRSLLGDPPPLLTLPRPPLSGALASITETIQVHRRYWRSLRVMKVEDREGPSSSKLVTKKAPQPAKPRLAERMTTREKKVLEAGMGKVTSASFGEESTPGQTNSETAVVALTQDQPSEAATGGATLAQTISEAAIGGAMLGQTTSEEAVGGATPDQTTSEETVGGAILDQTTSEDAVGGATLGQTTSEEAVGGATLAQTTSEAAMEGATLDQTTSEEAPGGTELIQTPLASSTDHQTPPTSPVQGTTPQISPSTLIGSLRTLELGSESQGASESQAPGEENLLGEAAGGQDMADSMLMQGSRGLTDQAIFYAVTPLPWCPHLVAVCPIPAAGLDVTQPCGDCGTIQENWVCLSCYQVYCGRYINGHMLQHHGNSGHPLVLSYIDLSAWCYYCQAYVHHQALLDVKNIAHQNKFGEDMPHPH
Briefly: HDAC6 enzyme activity inhibition assay (HDAC Fluorimetric Drug Discovery Kit). Type of test: biochemical. Conditions: for HDAC6 selectivity (fold): HDAC6 over HDAC1; for IC50: human recombinant HDAC6, same protocol as HDAC1. The method in brief: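 Human recombinant HDAC1 or HDAC6 (0.3 μg) reacted with 10 μM Fluor de Lys-SIRT1 substrate and 5-fold compound dilutions for 60 min at 30 °C. Developer II added for 30 min, fluorescence read at Ex 360/Em 460; IC50 calculated from the readings.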

For the compound `CN1CCN(C(=O)N(Cc2ccc(-c3nnc(C(F)(F)F)o3)cc2F)c2ccc(F)c(Cl)c2)CC1` [Compound 21564, N-(3-chloro-4-fluorophenyl)-N-(2-fluoro-4-(5-(trifluoromethyl)-1,3,4-oxadiazol-2-yl)benzyl)-4-methylpiperazine-1-carboxamide], the “HDAC6 selectivity (fold)” value came out at 88 fold. Further, under “read-out: HDAC6”, the IC50 was found to be 113 nM.

For the compound `CN1CCN(C(=O)N(Cc2ccc(-c3nnc(C(F)F)o3)cc2F)c2ccc(F)c(Cl)c2)CC1` [Compound 21565, N-(3-chloro-4-fluorophenyl)-N-(4-(5-(difluoromethyl)-1,3,4-oxadiazol-2-yl)-2-fluorobenzyl)-4-methylpiperazine-1-carboxamide], the “HDAC6 selectivity (fold)” value is 625 fold. For the same compound, the IC50 (read-out: HDAC6) stood at 16 nM.

With `O=C(N1CC2(COC2)C1)N(Cc1ccc(-c2nnc(C(F)F)o2)cn1)c1ccccc1` [Compound 21566, N-((5-(5-(difluoromethyl)-1,3,4-oxadiazol-2-yl)pyridin-2-yl)methyl)-N-phenyl-2-oxa-6-azaspiro[3.3]heptane-6-carboxamide], the “HDAC6 selectivity (fold)” value was found to be 526 fold. Moreover, the IC50 (read-out: HDAC6) is 19 nM.

Consider `CC(C)(C)OC(=O)N(Cc1ccc(-c2nnc(C(F)F)o2)cc1)c1ccccc1` [Compound 21568, Tert-butyl (4-(5-(difluoromethyl)-1,3,4-oxadiazol-2-yl)benzyl)(phenyl)carbamate], for which the “HDAC6 selectivity (fold)” value is on record as 42 fold. The IC50 (read-out: HDAC6) came to 237 nM.

With `O=C(Oc1ccccc1)N(Cc1ccc(-c2nnc(C(F)F)o2)cc1)c1ccccc1` [Compound 21569, Phenyl (4-(5-(difluoromethyl)-1,3,4-oxadiazol-2-yl)benzyl)(phenyl)carbamate], the “HDAC6 selectivity (fold)” value was 59 fold. Also, the IC50 (HDAC6 (nM)) amounted to 170 nM.

In the case of `CC(C)COC(=O)N(Cc1ccc(-c2nnc(C(F)F)o2)cc1)c1ccccc1` [Compound 21570, Isobutyl (4-(5-(difluoromethyl)-1,3,4-oxadiazol-2-yl)benzyl)(phenyl)carbamate], the “HDAC6 selectivity (fold)” value worked out at 32 fold. For the same compound, the IC50 (read-out: HDAC6) was determined as 309 nM.

Consider `CCCCN(Cc1ccc(-c2nnc(C(F)F)o2)cc1)C(=O)Nc1ccccc1` [Compound 21576, 1-Butyl-1-(4-(5-(difluoromethyl)-1,3,4-oxadiazol-2-yl)benzyl)-3-phenylurea], for which the “HDAC6 selectivity (fold)” value came out at 24 fold. Moreover, where the note is “read-out: HDAC6”, the IC50 stood at 409 nM.

As to `CN(C)CCNC(=O)N(Cc1ccc(-c2nnc(C(F)F)o2)cc1)c1ccccc1` [Compound 21577, 1-(4-(5-(Difluoromethyl)-1,3,4-oxadiazol-2-yl)benzyl)-3-(2-(dimethylamino)ethyl)-1-phenylurea], the “HDAC6 selectivity (fold)” value came out at 152 fold. Besides, the IC50 (read-out: HDAC6) worked out at 66 nM.

Regarding `CCN(CCN(C)C)C(=O)N(Cc1ccc(-c2nnc(C(F)F)o2)cc1)c1ccccc1` [Compound 21578, 1-(4-(5-(Difluoromethyl)-1,3,4-oxadiazol-2-yl)benzyl)-3-(2-(dimethylamino)ethyl)-3-ethyl-1-phenylurea], the “HDAC6 selectivity (fold)” value was determined as 233 fold. Besides, the IC50 (read-out: HDAC6) amounted to 43 nM.

As for `CN(C)[C@H]1CCN(C(=O)N(Cc2ccc(-c3nnc(C(F)F)o3)cc2F)c2ccc(F)c(Cl)c2)C1` [Compound 21583, (S)—N-(3-chloro-4-fluorophenyl)-N-(4-(5-(difluoromethyl)-1,3,4-oxadiazol-2-yl)-2-fluorobenzyl)-3-(dimethylamino)pyrrolidine-1-carboxamide], the “HDAC6 selectivity (fold)” value amounted to 833 fold. For the same compound, the IC50 (read-out: HDAC6) is 12 nM.

Take `CN(C)[C@@H]1CCN(C(=O)N(Cc2ccc(-c3nnc(C(F)F)o3)cc2F)c2ccc(F)c(Cl)c2)C1` [Compound 21584, (R)—N-(3-chloro-4-fluorophenyl)-N-(4-(5-(difluoromethyl)-1,3,4-oxadiazol-2-yl)-2-fluorobenzyl)-3-(dimethylamino)pyrrolidine-1-carboxamide]: the “HDAC6 selectivity (fold)” value amounted to 370 fold. Further, the IC50 (read-out: HDAC6) was determined as 27 nM.
